Assay results as given in the CheMixHub viscosity set.
Values joined by “and” are separate entries in the source; they are usually repeats but may differ in a detail not shown here. Identical values can stand only once. ± gives the uncertainty stated by the source.

Test: xn = mol fraction of the nth substance listed

[Cl-].[Cl-].[Cu+2] + O
viscosity [mPa·s]
Settings	x1 = 0.000905	x1 = 0.00112	x1 = 0.002247	x1 = 0.002718	x1 = 0.004484	x1 = 0.00453	x1 = 0.006344	x1 = 0.008159	x1 = 0.008927	x1 = 0.0177
308.15 K, 101.3 kPa	–	0.739 ± 0.019	0.7708 ± 0.02	–	0.8088 ± 0.021	–	–	–	0.879 ± 0.023	0.9692 ± 0.025
308.15 K, 101.33 kPa	0.7395 ± 0.014	–	–	0.7712 ± 0.015	–	0.8092 ± 0.015	0.8409 ± 0.016	0.879 ± 0.016	–	–
313.15 K, 101.3 kPa	–	0.6675 ± 0.018	0.697 ± 0.018	–	0.7375 ± 0.019	–	–	–	0.794 ± 0.021	0.8595 ± 0.022
313.15 K, 101.33 kPa	0.668 ± 0.013	–	–	0.6975 ± 0.013	–	0.738 ± 0.014	0.762 ± 0.014	0.7945 ± 0.015	–	–
323.15 K, 101.3 kPa	–	0.577 ± 0.016	0.601 ± 0.016	–	0.637 ± 0.017	–	–	–	0.6967 ± 0.018	0.7595 ± 0.02
323.15 K, 101.33 kPa	0.5775 ± 0.011	–	–	0.6015 ± 0.012	–	0.6375 ± 0.012	0.6685 ± 0.013	0.6972 ± 0.013	–	–

ClC(Cl)(Cl)Cl + O=C1CCCCC1
298.15 K, 101 kPa
Settings	viscosity [mPa·s]
x2 = 0.0951	1.017 ± 0.017
x2 = 0.2086	1.109 ± 0.019
x2 = 0.3074	1.193 ± 0.02
x2 = 0.4109	1.289 ± 0.021
x2 = 0.5072	1.381 ± 0.023
x2 = 0.6004	1.476 ± 0.024
x2 = 0.7013	1.577 ± 0.026
x2 = 0.8072	1.669 ± 0.027
x2 = 0.9023	1.754 ± 0.029

Cc1ccccc1C(=O)O + O=C1CCCCCN1
101 kPa, x2 = 0.67
Settings	viscosity [mPa·s]
303.2 K	108.3 ± 3.1
313.1 K	58.33 ± 0.88
323.1 K	34.26 ± 0.5

O=C1CCCCCN1 + O=C(O)c1ccccc1
101 kPa, x1 = 0.5
Settings	viscosity [mPa·s]
303.2 K	104.2 ± 2.9
313.1 K	48.15 ± 0.9
323.1 K	27.31 ± 0.4

CCCOC(C)=O + O=S1(=O)CCCC1
101 kPa
Settings	viscosity [mPa·s]
303.15 K, x1 = 0.0177	9.305 ± 0.074
308.15 K, x2 = 0.6489	2.375 ± 0.021
313.15 K, x2 = 0.7639	3.185 ± 0.028

ClC(Cl)(Cl)Cl + O=S1(=O)CCCC1
viscosity [mPa·s], 101.33 kPa
Settings	303.15 K	313.15 K	323.15 K
x2 = 0.066	1.002 ± 0.005	0.8675 ± 0.0043	0.7607 ± 0.0038
x2 = 0.1374	1.243 ± 0.0062	1.062 ± 0.0053	0.9177 ± 0.0046
x2 = 0.2048	1.532 ± 0.0077	1.286 ± 0.0065	1.098 ± 0.0055
x2 = 0.3138	2.043 ± 0.01	1.691 ± 0.0085	1.425 ± 0.0072
x2 = 0.3838	2.392 ± 0.012	1.974 ± 0.01	1.658 ± 0.0084
x2 = 0.4188	2.589 ± 0.013	2.133 ± 0.011	1.79 ± 0.0091
x2 = 0.4879	3.046 ± 0.016	2.498 ± 0.013	2.082 ± 0.011
x2 = 0.5667	3.682 ± 0.019	2.982 ± 0.015	2.47 ± 0.013
x2 = 0.6334	4.338 ± 0.022	3.481 ± 0.018	2.855 ± 0.015
x2 = 0.705	5.162 ± 0.026	4.107 ± 0.021	3.348 ± 0.017
x2 = 0.7743	6.124 ± 0.031	4.817 ± 0.024	3.9 ± 0.02
x2 = 0.8473	7.286 ± 0.037	5.711 ± 0.029	4.571 ± 0.023
x2 = 0.8955	8.168 ± 0.041	6.367 ± 0.032	5.053 ± 0.025

ClC(Cl)(Cl)Cl + O=[N+]([O-])c1ccccc1
101 kPa
Settings	viscosity [mPa·s]
298.15 K, x1 = 0.17	1.613 ± 0.11
298.15 K, x1 = 0.35	1.411 ± 0.1
298.15 K, x1 = 0.55	1.224 ± 0.089
298.15 K, x1 = 0.76	1.099 ± 0.081
303.15 K, x2 = 0.0951	0.8421 ± 0.0061
303.15 K, x2 = 0.1913	0.8672 ± 0.0063
303.15 K, x2 = 0.2891	0.8934 ± 0.0065
303.15 K, x2 = 0.3875	0.9219 ± 0.0067
303.15 K, x2 = 0.4865	0.9908 ± 0.0072
303.15 K, x2 = 0.5871	1.059 ± 0.0076
303.15 K, x2 = 0.6886	1.159 ± 0.0083
303.15 K, x2 = 0.7915	1.25 ± 0.009
303.15 K, x2 = 0.8947	1.436 ± 0.01

CCN(CC)CC + OCCO
101 kPa
Settings	viscosity [mPa·s]
296.95 K, x1 = 0.143	16.28 ± 0.14
297.85 K, x1 = 0.268	9.85 ± 0.14
297.85 K, x1 = 0.514	2.7 ± 0.06
297.85 K, x1 = 0.789	0.704 ± 0.021
301.85 K, x1 = 0.143	13.5 ± 0.14
302.85 K, x1 = 0.268	7.9 ± 0.09
302.85 K, x1 = 0.789	0.644 ± 0.007
306.45 K, x1 = 0.143	11.7 ± 0.11
307.85 K, x1 = 0.268	6.79 ± 0.07
307.85 K, x1 = 0.514	2.05 ± 0.02
307.85 K, x1 = 0.789	0.589 ± 0.006
312.95 K, x1 = 0.268	5.7 ± 0.06
312.95 K, x1 = 0.514	1.79 ± 0.02
312.95 K, x1 = 0.789	0.543 ± 0.006
313.45 K, x1 = 0.143	9.46 ± 0.09
317.75 K, x1 = 0.268	4.91 ± 0.05
317.75 K, x1 = 0.514	1.61 ± 0.02
317.75 K, x1 = 0.789	0.514 ± 0.005
320.45 K, x1 = 0.143	7.64 ± 0.09
322.75 K, x1 = 0.268	4.18 ± 0.04
322.75 K, x1 = 0.514	1.45 ± 0.01

CC1CCCCC1O (stereo unspecified) + c1ccccc1
293.15 K, 101 kPa
Settings	viscosity
x2 = 0.33	3.2 ± 0.1 mPa·s
x2 = 0.5	1.8 ± 0.1 mPa·s
x2 = 0.6	1.5 ± 0.1 mPa·s
x2 = 0.7	1.3 ± 0.1 mPa·s
x2 = 0.8	1.1 ± 0.1 mPa·s and 1 ± 0.1 mPa·s

CCCC(C)=O + c1ccccc1
303.15 K, 101.32 kPa
Settings	viscosity [mPa·s]
x2 = 0.1304	0.469 ± 0.004
x2 = 0.2771	0.475 ± 0.004
x2 = 0.3294	0.484 ± 0.004
x2 = 0.4869	0.499 ± 0.004
x2 = 0.6257	0.515 ± 0.004
x2 = 0.6946	0.522 ± 0.004
x2 = 0.7707	0.532 ± 0.004
x2 = 0.9042	0.553 ± 0.004

CCCOC(C)=O + c1ccccc1
Settings	viscosity [mPa·s]
298.15 K, 101.3 kPa, x2 = 0.246	0.537 ± 0.014
298.15 K, 101.3 kPa, x2 = 0.4714	0.537 ± 0.014
298.15 K, 101.3 kPa, x2 = 0.6809	0.551 ± 0.015
298.15 K, 101.3 kPa, x2 = 0.8404	0.563 ± 0.015
303.15 K, 101.33 kPa, x2 = 0.0633	0.514 ± 0.005
303.15 K, 101.33 kPa, x2 = 0.1259	0.515 ± 0.005
303.15 K, 101.33 kPa, x2 = 0.1865	0.513 ± 0.005
303.15 K, 101.33 kPa, x2 = 0.3006	0.512 ± 0.005
303.15 K, 101.33 kPa, x2 = 0.4062	0.513 ± 0.005
303.15 K, 101.33 kPa, x2 = 0.5133	0.514 ± 0.005
303.15 K, 101.33 kPa, x2 = 0.6141	0.517 ± 0.005
303.15 K, 101.33 kPa, x2 = 0.7078	0.524 ± 0.005
303.15 K, 101.33 kPa, x2 = 0.7972	0.529 ± 0.005
303.15 K, 101.33 kPa, x2 = 0.8812	0.539 ± 0.005
303.15 K, 101.33 kPa, x2 = 0.9631	0.551 ± 0.005
308.15 K, 101.3 kPa, x2 = 0.246	0.477 ± 0.013
308.15 K, 101.3 kPa, x2 = 0.4714	0.48 ± 0.013
308.15 K, 101.3 kPa, x2 = 0.8404	0.49 ± 0.013
313.15 K, 101.33 kPa, x2 = 0.1951	0.448 ± 0.005
313.15 K, 101.33 kPa, x2 = 0.4024	0.449 ± 0.005
313.15 K, 101.33 kPa, x2 = 0.5082	0.453 ± 0.005
313.15 K, 101.33 kPa, x2 = 0.6029	0.455 ± 0.005
313.15 K, 101.33 kPa, x2 = 0.8029	0.466 ± 0.005

CCN(CC)CC + c1ccccc1
303.15 K, 101 kPa
Settings	viscosity [mPa·s]
x1 = 0.01024	0.5567 ± 0.0048
x1 = 0.02091	0.5513 ± 0.0048
x1 = 0.03113	0.545 ± 0.005
x1 = 0.03955	0.5386 ± 0.0048
x1 = 0.05006	0.5341 ± 0.0046
x1 = 0.06182	0.5287 ± 0.0047
x1 = 0.07124	0.5215 ± 0.0048
x1 = 0.08041	0.5162 ± 0.0046
x1 = 0.09192	0.5096 ± 0.0046
x1 = 0.09995	0.5041 ± 0.0047

ClC(Cl)(Cl)Cl + c1ccncc1
298.15 K, 101 kPa
Settings	viscosity [mPa·s]
x1 = 0.09	0.9206 ± 0.0078
x1 = 0.1492	0.9404 ± 0.008
x1 = 0.2381	0.9623 ± 0.0081
x1 = 0.293	0.9729 ± 0.0082
x1 = 0.37	0.9819 ± 0.0083
x1 = 0.4337	0.9847 ± 0.0083
x1 = 0.4561	0.9841 ± 0.0083
x1 = 0.4972	0.9842 ± 0.0083
x1 = 0.6006	0.9751 ± 0.0082
x1 = 0.738	0.9538 ± 0.0081
x1 = 0.7863	0.943 ± 0.008
x1 = 0.8636	0.9286 ± 0.0079
x1 = 0.9447	0.912 ± 0.0077

Oc1nc(O)nc(O)n1 + c1ccncc1
Settings	viscosity [mPa·s]
298.15 K, 101 kPa, x1 = 0.0199	1.038 ± 0.21
